Results: BindingDB's records for doi:10.1016/j.bioorg.2016.05.004 (Universidade De Evora, 2016)

Legend:
[1] = molecular target: Acetylcholinesterase (Electrophorus electricus, UniProt O42275); assay: EeAChE Inhibition Assay
Experimental: The inhibition assay of these compounds for AChE (electrophorus electricus) and BuChE (equine serum) were determined by the spectroscopic method described by Ellman et al. which was adapted for 96-well microplates. 25 The standard compound used was galantamine. A 75 μL of different concentrations of the sample was dissolved in buffer with a maximum of 10% DMSO, 25 μL of ATCI (15 mM), and 125 μL of DTNB 3 mM were added to the wells followed by 25 μL of 0.3 U/mL AChE. The velocity was measured by the increase in the absorbance at 405 nm during 1 min time interval at 25 C in a BIO-TEK ELX800G microplate reader (using Gen5 v.1.05 software).

[2] = molecular target: Carboxylic ester hydrolase (Equus caballus, UniProt Q9N1N9); assay: EqBuChE Inhibition Assay
Sequence of Carboxylic ester hydrolase (Q9N1N9 whole entry): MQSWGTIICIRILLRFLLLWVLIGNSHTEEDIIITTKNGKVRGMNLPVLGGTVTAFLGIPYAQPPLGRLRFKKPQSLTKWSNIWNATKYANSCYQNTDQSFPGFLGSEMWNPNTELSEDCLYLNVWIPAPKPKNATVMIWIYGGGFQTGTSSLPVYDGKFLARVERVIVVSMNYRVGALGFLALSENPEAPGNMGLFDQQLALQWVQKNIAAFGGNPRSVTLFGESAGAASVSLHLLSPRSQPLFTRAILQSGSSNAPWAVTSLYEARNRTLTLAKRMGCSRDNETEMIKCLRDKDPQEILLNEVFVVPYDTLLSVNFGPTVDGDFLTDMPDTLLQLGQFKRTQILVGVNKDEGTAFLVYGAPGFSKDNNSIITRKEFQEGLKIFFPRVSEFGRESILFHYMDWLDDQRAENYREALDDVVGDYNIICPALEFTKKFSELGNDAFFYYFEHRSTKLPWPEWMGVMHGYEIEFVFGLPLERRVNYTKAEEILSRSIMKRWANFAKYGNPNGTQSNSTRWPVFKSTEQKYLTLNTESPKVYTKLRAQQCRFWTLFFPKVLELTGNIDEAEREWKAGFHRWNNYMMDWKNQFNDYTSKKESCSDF
Experimental: The in vitro BuChE assay was performed similarly to the method described above. A standard enzyme activity curve was drawn for each enzyme using seven different concentrations ranging from 0.1 U/mL to 1 U/mL and enzyme activity was calculated (one unit of enzyme will hydrolyze 1.0 μmol of acetylthiocholine to thiocholine and acetate per minute). Inhibitory activity was calculated from 100 subtracted by the percentage of enzyme activity.

Sequence of Acetylcholinesterase (O42275 whole entry): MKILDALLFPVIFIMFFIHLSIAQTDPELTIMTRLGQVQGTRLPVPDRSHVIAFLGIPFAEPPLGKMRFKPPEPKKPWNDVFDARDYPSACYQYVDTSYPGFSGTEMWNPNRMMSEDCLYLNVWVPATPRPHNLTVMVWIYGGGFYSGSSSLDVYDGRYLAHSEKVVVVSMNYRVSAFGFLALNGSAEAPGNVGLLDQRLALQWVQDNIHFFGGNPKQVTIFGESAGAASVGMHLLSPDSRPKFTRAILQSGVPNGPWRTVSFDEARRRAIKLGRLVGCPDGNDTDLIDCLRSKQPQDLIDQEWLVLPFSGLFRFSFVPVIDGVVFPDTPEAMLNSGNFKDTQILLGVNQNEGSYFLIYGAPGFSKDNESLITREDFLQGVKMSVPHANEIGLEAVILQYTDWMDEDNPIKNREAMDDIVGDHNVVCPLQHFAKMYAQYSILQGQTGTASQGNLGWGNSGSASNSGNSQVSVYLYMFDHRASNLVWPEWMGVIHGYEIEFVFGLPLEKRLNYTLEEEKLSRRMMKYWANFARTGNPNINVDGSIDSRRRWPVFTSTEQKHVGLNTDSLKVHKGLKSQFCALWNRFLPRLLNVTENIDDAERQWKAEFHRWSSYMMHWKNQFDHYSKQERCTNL

Compound	IC50 [1] [µM]	IC50 [2] [µM]
Cc1ccc2c(n1)C(O)CCNC2=O (stereo unspecified) [Isoquinolin-1(2H)-ones, 4b]	> 1500	> 1500
Cc1ccc2c(c1)C(O)CNC2=O (stereo unspecified) [Isoquinolin-1(2H)-ones, 1c]	> 1500	> 1500
COc1ccc2c(c1)C(=O)NCC2O (stereo unspecified) [Isoquinolin-1(2H)-ones, 1e]	311	> 1500
O=C1NCC(O)c2ccccc21 (stereo unspecified) [Isoquinolin-1(2H)-ones, 1a]	136	807
O=C1NCC(O)c2ccsc21 (stereo unspecified) [Isoquinolin-1(2H)-ones, 5]	1370	> 1500
COc1ccc2c3c1O[C@H]1C[C@@H](O)C=C[C@@]31CCN(C)C2 [galantamine]	–	61.9
Cc1ccc2c(c1)C(=O)NCCC2O (stereo unspecified) [Isoquinolin-1(2H)-ones, 2b]	536	108
COC1CNC(=O)c2ccccc21 (stereo unspecified) [Isoquinolin-1(2H)-ones, 1f]	89.5	154
O=C1NCCC(O)c2ncccc21 (stereo unspecified) [Isoquinolin-1(2H)-ones, 4a]	550	> 1500
Cc1ccc2c(c1)C(=O)NCC2O (stereo unspecified) [Isoquinolin-1(2H)-ones, 1b]	> 1500	352
O=C1NCC(O)c2cc(Cl)ccc21 (stereo unspecified) [Isoquinolin-1(2H)-ones, 1d]	> 1500	226
